Assay results reported in patent US11161818B2, “Quinolone derivatives, preparation methods and application thereof” (Hangzhou Normal University, priority 2019, dated 2021).
Structures can show the parent of a compound that is named as a salt.

Key:
B. subtilis = test: Bactericidal activity test, filter paper inhibition zone; type: cell-based, Bacillus subtilis; conditions: filter paper diameter 6 mm, 37° C., 24 hours; for B. subtilis inhibition zone: sample concentration 10 mg/mL
Experimental: (§1) In order to determine the practicability of the compounds synthesized in this patent, some of the compounds are selected as representatives, and the bactericidal activity is determined by conventional methods. The specific operation procedures are as follows:
(§2) In a super clean bench, the preserved strains are transferred to a slant tube, cultured in an incubator at 37° C. for 24 hours, and then taken out and preserved at low temperature for antibacterial experiments. The well-grown colonies are scraped and transferred into a liquid medium with the inoculation ring, shaken to give a uniform mixture, and cultured in the incubator at 37° C. for 24 hours. The culture medium is poured into plates, about 15 ml for each plate, which are placed horizontally, and after solidification, placed upside down into the incubator at 37° C.; after two days, it is observed whether there is colony growth. If not, it can be used for the next experiment, otherwise, the plate needs to be poured again. 0.5 ml of bacterial suspension is pipetted into the plate, which is left to stand still for about 5 minutes, and then spread evenly with a coating rod; two duplicate plates are set for each kind of bacteria. In the super clean bench, the plates are divided equally and parallel groups are set. Each piece of filter paper (6 mm in diameter) is a paste. The filter paper is picked up with tweezers, dipped into a sample, taken out, placed at a given position of the plate, and gently pressed to make the filter paper firmly adhered thereto. The plate is placed (upside down) in the incubator for culture; the temperature is set at 37° C.; and after 24 hours culture, the plate is observed and the results are recorded.

[1] = test system: MRSA (methicillin-resistant Staphylococcus aureus); test: as above; type: cell-based; conditions: filter paper diameter 6 mm, 37° C., 24 hours; for MRSA inhibition zone: sample concentration 10 mg/mL
Experimental: as §1, §2

E. coli = test: as above; type: cell-based; conditions: filter paper diameter 6 mm, 37° C., 24 hours; for E. coli activity inhibition zone: sample concentration 10 mg/mL
Experimental: as §1, §2

S. aureus = test: as above; type: cell-based, Staphylococcus aureus; conditions: filter paper diameter 6 mm, 37° C., 24 hours; for S. aureus inhibition zone: sample concentration 10 mg/mL
Experimental: as §1, §2

[2] = test system: liver cancer cells (HepG2); test: Anti-tumor activity test, MTT method; type: cell-based, human; conditions: concentration 0.5 mg/ml (DMSO as solvent), 44 + 4 hours culture
Experimental: (§3) For the anti-tumor activity test of these compounds, three kinds of common tumor cells are taken as research subjects: non-small cell lung cancer cells (HCC827), lung cancer cells (A549) and liver cancer cells (HepG2). Under the action of the new quinolone derivatives, the growth of the cells is observed, and the proliferation of tumor cells is measured by MTT method. The specific operation is as follows: the tumor cells are inoculated into 96-well culture plate in a particular amount of cells, with a cell density of 2×10^4 cells/ml; after overnight in the incubator with a concentration of 5% CO2 at 37° C., the screened samples are added (reference can be made to Table 1 for sample concentration; 10 μL/well of corresponding concentration of drugs are added to the dosing group, while 10 μL/well of PBS are added to the control group). After 44 hours of culture, 10 μL/well of MTT are added to continue the culture for 4 hours, which is dissolved with DMSO, shaken, and detected with a 570 nm enzyme-labeled instrument.

[3] = test system: non-small cell lung cancer cells (HCC827); test: Anti-tumor activity test, MTT method; type: cell-based; conditions: concentration 0.5 mg/ml (DMSO as solvent), 44 + 4 hours culture
Experimental: as §3

lung cancer cells (A549) = test: Anti-tumor activity test, MTT method; type: cell-based; conditions: concentration 0.5 mg/ml (DMSO as solvent), 44 + 4 hours culture
Experimental: as §3

| Compound | B. subtilis inhibition zone (B. subtilis) [mm] | MRSA inhibition zone [1] [mm] | E. coli activity inhibition zone (E. coli) [mm] | S. aureus inhibition zone (S. aureus) [mm] | further results |
| --- | --- | --- | --- | --- | --- |
| CCOC(=O)c1cn(-c2ccc(Oc3ccc(C(C)(C)C)cc3)cc2)c2cc(Cl)c(F)cc2c1=O [Compound I-10, ethyl 7-chloro-6-fluoro-1-(4-(4-tert-butylphenoxy)phenyl)-4-oxy-1,4-dihydroquinoline-3-carboxylate] | 20 | 14 | 24 | 20 |  |
| CCOC(=O)c1cn(Cc2ccc(Oc3ccc(Cl)cc3)cc2)c2cc(Cl)c(F)cc2c1=O [Compound I-20, ethyl 7-chloro-1-(4-(4-chlorophenoxy)benzyl)-6-fluoro-4-oxy-1,4-dihydroquinoline-3-carboxylate] | 12 | 10 | 24 | 21 |  |
| CCOC(=O)c1cn(-c2ccc(Oc3ccc(C)cc3)cc2)c2cc(Cl)c(F)cc2c1=O [Compound I-8, ethyl 7-chloro-6-fluoro-1-(4-(4-toluoxy)phenyl)-4-oxy-1,4-dihydroquinoline-3-carboxylate] | 12 | 10 | 12 | 13 |  |
| CCOC(=O)c1cn(-c2ccc(Oc3ccc(C)c(C)c3)cc2)c2cc(Cl)c(F)cc2c1=O [Compound I-17, ethyl 7-chloro-1-(4-(3,4-dimethylphenoxyl)phenyl)-6-fluoro-4-oxy-1,4-dihydroquinoline-3-carboxylate] | 11 | 7 | 29 | 20 |  |
| CCOC(=O)c1cn(-c2ccc(Oc3ccc(OC)cc3)cc2)c2cc(Cl)c(F)cc2c1=O [Compound I-11, ethyl 7-chloro-6-fluoro-1-(4-(4-methoxyphenoxy)phenyl)-4-oxy-1,4-dihydroquinoline-3-carboxylate] | 13 | 7 | 22 | 11 |  |
| O=C(O)c1cn(-c2ccc(Oc3ccc(Cl)cc3)cc2)c2cc(Cl)c(F)cc2c1=O [Compound I-26, 7-chloro-1-(4-(4-chlorophenoxy)phenyl)-6-fluoro-4-oxy-1,4-dihydroquinoline-3-carboxylic acid] | 24 | 15 | 29 | 29 | IC50 [2]: 5 µM; IC50 [3]: 5 µM; IC50 (lung cancer cells (A549)): > 10 µM |
| C[C@H]1COc2c(N3CCN(C)CC3)c(F)cc3c(=O)c(C(=O)O)cn1c23 [Control group, levofloxacin hydrochloride, reference compound] |  |  |  |  | zone of inhibition at 5000 µg/mL (B. subtilis; Bacillus subtilis, control concentration 5 mg/mL): 22 mm; zone of inhibition at 5000 µg/mL ([1]; Staphylococcus aureus, MRSA, control concentration 5 mg/mL): 12 mm; zone of inhibition at 5000 µg/mL (E. coli; Escherichia coli, control concentration 5 mg/mL): 25 mm; zone of inhibition at 5000 µg/mL (S. aureus; Staphylococcus aureus, control concentration 5 mg/mL): 26 mm |
| CC(=O)O[C@H]1C(=O)[C@@]2(C)[C@H]([C@H](OC(=O)c3ccccc3)[C@]3(O)C[C@H](OC(=O)[C@H](O)[C@@H](NC(=O)c4ccccc4)c4ccccc4)C(C)=C1C3(C)C)[C@]1(OC(C)=O)CO[C@@H]1C[C@@H]2O [Paclitaxel, reference compound] |  |  |  |  | IC50 ([2]; Homo sapiens): 1.5 µM; IC50 ([3]; Homo sapiens): 2.5 µM; IC50 (lung cancer cells (A549); Homo sapiens): 3.5 µM |
| CCOC(=O)c1cn(-c2ccc(Oc3ccc(Cl)cc3)cc2)c2cc(Cl)c(F)cc2c1=O [Compound I-3, ethyl 7-chloro-1-(4-(4-chlorophenoxy)phenyl)-6-fluoro-4-oxy-1,4-dihydroquinoline-3-carboxylate] | 18 | 8 | 24 | 20 | IC50 [2]: 7.5 µM; IC50 [3]: 4.5 µM; IC50 (lung cancer cells (A549)): > 10 µM |
| CCOC(=O)c1cn(-c2ccc(Oc3ccc(C(F)(F)F)cc3)cc2)c2cc(Cl)c(F)cc2c1=O [Compound I-14, ethyl 7-chloro-6-fluoro-1-(4-(4-trifluoromethylphenoxy)phenyl)-4-oxy-1,4-dihydroquinoline-3-carboxylate] | 15 | 12 | 27 | 20 |  |
| CCOC(=O)c1cn(-c2ccc(Oc3ccc(F)cc3)cc2)c2cc(Cl)c(F)cc2c1=O [Compound I-7, ethyl 7-chloro-6-fluoro-1-(4-(4-fluorophenoxy)phenyl)-4-oxy-1,4-dihydroquinoline-3-carboxylate] | 13 | 7 | 17 | 15 |  |
| CCOC(=O)c1cn(-c2ccc(Oc3ccccc3)cc2)c2cc(Cl)c(F)cc2c1=O [Compound I-4, ethyl 7-chloro-6-fluoro-4-oxy-1-(4-phenoxyphenyl)-1,4-dihydroquinoline-3-carboxylate] | 23 | 9 | 27 | 19 |  |
| CCOC(=O)c1cn(Cc2ccc(Oc3ccccc3C)cc2)c2cc(Cl)c(F)cc2c1=O [Compound I-22, ethyl 7-chloro-1-(4-(2-methylphenoxy)benzyl)-6-fluoro-4-oxy-1,4-dihydroquinoline-3-carboxylate] | 18 | 14 | 30 | 23 |  |
| CCOC(=O)c1cn(-c2ccc(Oc3ccc(OC(F)(F)F)cc3)cc2)c2cc(Cl)c(F)cc2c1=O [Compound I-12, ethyl 7-chloro-6-fluoro-1-(4-(4-trifluoromethoxyphenoxy)phenyl)-4-oxy-1,4-dihydroquinoline-3-carboxylate] | 8 | 8 | 28 | 24 | IC50 [2]: 8.5 µM; IC50 [3]: > 10 µM; IC50 (lung cancer cells (A549)): > 10 µM |
| COc1ccc(Oc2ccc(-n3cc(C(=O)O)c(=O)c4cc(F)c(Cl)cc43)cc2)cc1 [Compound I-28, 7-chloro-1-(4-(4-methoxyphenoxy)phenyl)-6-fluoro-4-oxy-1,4-dihydroquinoline-3-carboxylic acid] | 28 | 11 | 25 | 29 |  |
| CCOC(=O)c1cn(-c2ccc(Oc3ccc(Cl)c(Cl)c3)cc2)c2cc(Cl)c(F)cc2c1=O [Compound I-15, ethyl 7-chloro-1-(4-(3,4-dichlorophenoxy)phenyl)-6-fluoro-4-oxy-1,4-dihydroquinoline-3-carboxylate] | 18 | 9 | 21 | 20 |  |
